From PubChem BioAssay (NCI)
Where “and” joins values, the source holds several entries; their conditions need not be identical. Equal values may be shown once.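 Dose response: 5 concentrations. Exposure: 48 h. Format: 96-well plates. Endpoint: linear interpolation; highest concentration if not reached. At the GI50, growth is halved. TGI is the concentration that stops growth completely.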

Experiments:
Assay in all cases: growth of human tumour cells (NCI), 48 h
[1] = tested on: DMS 114 small cell lung
[2] = tested on: EKVX NSCLC
[3] = tested on: HCC-2998 colon
[4] = tested on: HCT-116 colon
[5] = tested on: HCT-15 colon
[6] = tested on: HT29 colon
[7] = tested on: KM20L2 colon
[8] = tested on: M19-MEL melanoma
[9] = tested on: NCI-H23 lung
[10] = tested on: NCI-H460 lung
[11] = tested on: SF-539 CNS
[12] = tested on: SNB-75 CNS
[13] = tested on: SNB-78 CNS
[14] = tested on: XF 498 CNS

Row | Compound | TGI [1] | TGI [2] | TGI [3] | TGI [4] | TGI [5] | TGI [6] | TGI [7] | GI50 [8] | TGI [8] | TGI [9] | TGI [10] | TGI [11] | TGI [12] | TGI [13] | TGI [14]
1 | CC(C)=CCSC1CC2C(CC1(C)O)C2(C)C (centres undefined) | 30.7 µM and 21.7 µM | 28.3 µM and 31.4 µM | 3.27 µM and 18.6 µM | 33.5 µM and 28.7 µM | 31.4 µM and 29.6 µM | 29 µM and 28.2 µM | 30.8 µM and 34.9 µM | 1.86 µM and 4.26 µM | 3.31 µM and 19.3 µM | 29.8 µM and 25 µM | 33.7 µM and 27.2 µM | 32.3 µM and 29.6 µM | 30.1 µM and 23.7 µM | 41.2 µM and 26.3 µM | 18 µM and 16.6 µM
2 | Cn1c(-c2cccs2)cc(-c2cccs2)c1-c1ccsc1 |  | > 100 µM | > 100 µM | > 100 µM | > 100 µM | > 100 µM |  |  |  | > 100 µM | > 100 µM | > 100 µM | > 100 µM |  | 
3 | O=c1[nH]nc(Cc2ccccc2)n1Nc1ccccc1 |  | > 100 µM | > 100 µM | > 100 µM | > 100 µM | > 100 µM |  |  |  | > 100 µM | > 100 µM | > 100 µM | > 100 µM |  | 
4 | COC(=O)c1c(C)cccc1/C=C1\Cc2cc(C)cc(C)c2C1=O |  | > 100 µM | > 100 µM | > 100 µM | > 100 µM | > 100 µM |  |  |  | > 100 µM | > 100 µM | > 100 µM | 38.4 µM |  | 
5 | Cc1ccc2c(n1)C(=O)c1ccccc1C2=O |  | 96.3 µM | > 92.2 µM | 61.8 µM | 82.9 µM | > 87.9 µM |  |  |  | 38.1 µM | > 69 µM | > 87.1 µM | 92.4 µM |  | 
6 | COCCOCCOC1=C(Cl)C(=O)c2c(O)ccc(O)c2C1=O |  | 21.7 µM | 34 µM | 2.46 µM | 3.42 µM | 8.73 µM |  |  |  | 6.03 µM | 29.8 µM | 3.69 µM | 31.5 µM |  | 
7 | COc1cc(COC(=O)N2CCC2C(=O)O)c([N+](=O)[O-])cc1OC (centres undefined) |  | > 100 µM | > 100 µM | > 100 µM | > 100 µM | > 100 µM |  |  |  | > 100 µM | > 100 µM | > 100 µM | > 100 µM |  | 
8 | CCC(CCCC[C@@H]1CC[C@H]2CC(=O)C[C@@H]12)OC (some centres undefined) |  | > 100 µM | > 100 µM | > 100 µM | > 100 µM | > 100 µM |  |  |  | > 100 µM | > 100 µM | > 100 µM | > 100 µM |  | 
9 | COc1cccc(NC(=O)CC(=O)N2N=C(C)C(N=Nc3ccc(S(=O)(=O)c4ccc(N=NC5C(=O)N(C(=O)CC(=O)Nc6cccc(OC)c6)N=C5C)cc4)cc3)C2=O)c1 (centres undefined) |  | > 100 µM | > 100 µM | > 100 µM | > 100 µM | > 100 µM |  |  |  | > 100 µM | > 100 µM | > 100 µM | > 100 µM |  | 
10 | CC(C)C1OC(=O)/C=C/C=C/C=C/C=C/C=C/CC(O)CC(O)CC(O)CC(O)CC(O)CC(O)CC(O)CC(O)/C=C/C1C (centres undefined) |  | > 100 µM | > 100 µM | > 100 µM | > 100 µM | > 100 µM |  |  |  | > 100 µM | > 100 µM | > 100 µM | > 100 µM |  | 
11 | COc1ccc(-c2cc(-c3cc(OC)c(OC)c(OC)c3)cc(-c3cc4ccccc4oc3=O)n2)cc1 |  | 31.5 µM | 80.5 µM | 18.2 µM | > 100 µM | > 100 µM |  |  |  | 29.8 µM | 17.8 µM | 7.88 µM | 9.61 µM |  | 
12 | Cc1cccc2c1NC(=S)[C@@H]1CCCN1C2=O |  | > 100 µM | > 100 µM | > 100 µM | > 100 µM | > 100 µM |  |  |  | > 100 µM | > 100 µM | > 100 µM | > 100 µM |  | 
13 | CC(=O)Nc1ccc2c3c(cc(O)c2c1)N(C(=O)CCCCC(=O)Nc1ccc2c4c(cc(O)c2c1)N(C(=O)OC(C)(C)C)CC4CCl)CC3CCl (centres undefined) |  | 35.2 µM | 3.79 µM | > 33.2 µM | 48.2 µM | > 37.9 µM |  |  |  | 7.09 µM | > 33.8 µM | 7.62 µM | 4.59 µM |  | 
14 | COc1ccc(N=C(Nc2ccc(OC)cc2)C(=Nc2ccc(OC)cc2)Nc2ccc(OC)cc2)cc1 |  | > 100 µM | > 100 µM | > 100 µM | > 100 µM | > 100 µM |  |  |  | > 100 µM | > 100 µM | > 100 µM | 8.01 µM |  | 
15 | CCCCOC(=O)C(O)Cc1ccoc1 (centres undefined) |  | > 100 µM | > 100 µM | > 100 µM | > 100 µM | > 100 µM |  |  |  | > 100 µM | > 100 µM | > 100 µM | > 100 µM |  | 
16 | Clc1ccc(C2NN=C3c4ccccc4OCC32)cc1 (centres undefined) |  | 27.2 µM | 13.5 µM | > 36.4 µM | 13.5 µM | 12.2 µM |  |  |  | 51 µM | 25.8 µM | 7.17 µM | > 100 µM |  | 

Row | Compound | TGI [1] | TGI [2] | TGI [3] | TGI [4] | TGI [5] | TGI [6] | TGI [7] | GI50 [8] | TGI [8] | TGI [9] | TGI [10] | TGI [11] | TGI [12] | TGI [13] | TGI [14]
17 | O=C1CCCCc2cccc(O)c21 |  | > 100 µM | > 100 µM | > 100 µM | > 100 µM | > 100 µM |  |  |  | > 100 µM | > 100 µM | > 100 µM | > 100 µM |  | 
18 | Cc1c(NC(=S)Nc2ccc(Cl)cc2)c(=O)n(-c2ccccc2)n1C |  | > 100 µM | > 100 µM | > 100 µM | > 100 µM | > 100 µM |  |  |  | > 100 µM | > 100 µM | > 100 µM | > 100 µM |  | 
19 | CNC(=S)N/N=C/c1cccc(C)n1 |  | > 100 µM | > 100 µM | > 100 µM | > 100 µM | > 100 µM |  |  |  | > 81.2 µM | 60.9 µM | 39.7 µM | 90.9 µM |  | 
20 | O=[N+]([O-])c1cccnc1NCC1(CO)CC(Cc2ccccc2)C1 (centres undefined) |  | > 100 µM | > 100 µM | > 100 µM | > 100 µM | > 100 µM |  |  |  | > 100 µM | > 100 µM | > 100 µM | > 100 µM |  | 
21 | CC1C[C@]2(C)C(=O)N(c3ccccc3)C(=N)[C@@H]2N(C)c2ccccc21 (some centres undefined) |  | > 100 µM | > 100 µM | > 100 µM | > 100 µM | > 100 µM |  |  |  | > 100 µM | > 100 µM | > 100 µM | > 100 µM |  | 
22 | CNC(=O)c1[nH]cnc1/N=N/N(C)N |  | > 100 µM | > 100 µM | > 100 µM | > 100 µM | > 100 µM |  |  |  | > 100 µM | > 100 µM | > 100 µM | > 100 µM |  | 
23 | COCc1cc2c(cc1/C=C/[N+](=O)[O-])OCO2 |  | 36.5 µM | 32 µM | 34 µM | 36.8 µM | 34.6 µM |  |  |  | 44 µM | 34.3 µM | 44.9 µM | 31.9 µM |  | 
24 | CC(C)=CCC/C(C)=C/CC/C(C)=C/CC/C(C)=C/CC/C(C)=C\CC/C(C)=C/CC/C(C)=C/CC/C(C)=C/Cc1cc(O)ccc1O |  | 8.83 µM | > 48.8 µM | 1.87 µM | > 33.4 µM | 3.81 µM |  |  |  | 1.96 µM | 12.5 µM | 3.19 µM | 11.6 µM |  | 
25 | Cc1cn(Cc2ccccc2CCl)c(=O)[nH]c1=O |  | 33.2 µM | 28.8 µM | 17.9 µM | 31.7 µM | 79.7 µM |  |  |  | 23.3 µM | 44.3 µM | 24.6 µM | 30 µM |  | 
26 | CSC1=C(c2ccc(Cl)cc2)SC(N2CCCCC2)N1c1ccc([N+](=O)[O-])cc1 (centres undefined) |  | > 100 µM | > 100 µM | 62.8 µM | 89 µM | > 100 µM |  |  |  | 85.2 µM | 66.4 µM | 56.5 µM | 96.2 µM |  | 
27 | CN(C)Cc1cc(N=Nc2ccccc2)cc(CN(C)C)c1O |  | > 100 µM | > 100 µM | > 100 µM | > 100 µM | > 100 µM |  |  |  | > 100 µM | > 100 µM | > 100 µM | > 100 µM |  | 
28 | C[Si](C)(OCCS(=O)(=O)O)C1S(=O)(=O)OCCOS1(=O)=O |  | > 100 µM | > 100 µM | > 100 µM | > 100 µM | > 100 µM |  |  |  | > 100 µM | > 100 µM | > 100 µM | 59.9 µM |  | 
29 | O=C(CC(C(=O)c1ccoc1)c1ccco1)c1ccco1 (centres undefined) |  | > 100 µM | > 100 µM | > 100 µM | > 100 µM | > 100 µM |  |  |  | > 100 µM | > 100 µM | > 100 µM | > 100 µM |  | 
30 | c1ccc(CSc2nc(N3CCOCC3)c3cn[nH]c3n2)cc1 |  | 48 µM | 69.2 µM | > 100 µM | > 100 µM | > 100 µM |  |  |  | > 100 µM | 59 µM | 56.4 µM | > 100 µM |  | 
31 | COC(=O)CCC12CCC(O1)c1ccccc12 (centres undefined) |  | > 100 µM | > 100 µM | > 100 µM | > 100 µM | > 100 µM |  |  |  | > 100 µM | > 100 µM | > 100 µM | > 100 µM |  | 
32 | CC[C@@H](/C=C\CCC1(C[C@H](O)CCC=C(C)C)OCCO1)O[Si](C(C)C)(C(C)C)C(C)C |  | 60.2 µM | 31.9 µM | 38.6 µM | 42.8 µM | 65.9 µM |  |  |  | 61.8 µM | 53.3 µM | 34.8 µM | 64.9 µM |  | 
